Data taken from ChEMBL document CHEMBL1151757, “Synthesis, radiosynthesis, and biological evaluation of fluorine-18-labeled 2beta-carbo(fluoroalkoxy)-3beta-(3'-((Z)-2-haloethenyl)phenyl)nortropanes: candidate radioligands for in vivo imaging of the serotonin transporter with positron emission tomography” (J Med Chem, 2008).

What was measured:
Midbrain [1] = assay: Drug uptake in anesthetized cynomolgus monkey brain midbrain after 35 mins postinjection; type: ADME, organism-based, Macaca fascicularis; design: unit not given here; details: in vivo
Putamen [2] = assay: Drug uptake in anesthetized cynomolgus monkey brain putamen after 165 mins postinjection; type: ADME, organism-based, Macaca fascicularis; details: in vivo, 2.75 h
Midbrain [3] = assay: Drug uptake in anesthetized cynomolgus monkey brain midbrain after 18.5 mins postinjection; type: ADME, organism-based, Macaca fascicularis; design: unit not given here; details: in vivo
[4] = Ratio of drug uptake in frontal lobe to cerebellum in anesthetized cynomolgus monkey after 75 mins postinjection; type: ADME, organism-based, Macaca fascicularis; details: in vivo, 1.25 h
[5] = Drug uptake in anesthetized cynomolgus monkey brain cerebellum after 18.5 mins postinjection; type: ADME, organism-based, Macaca fascicularis; details: in vivo
[6] = Drug uptake in anesthetized cynomolgus monkey brain occipital lobe after 135 mins postinjection; type: ADME, organism-based, Macaca fascicularis; details: in vivo, 2.25 h
[7] = Ratio of drug uptake in pons to cerebellum in anesthetized cynomolgus monkey after 35 mins postinjection; type: ADME, organism-based, Macaca fascicularis; details: in vivo
[8] = Drug uptake in anesthetized cynomolgus monkey brain frontal lobe after 95 mins postinjection; type: ADME, organism-based, Macaca fascicularis; details: in vivo
Medulla [9] = assay: Drug uptake in anesthetized cynomolgus monkey brain medulla after 95 mins postinjection; type: ADME, organism-based, Macaca fascicularis; details: in vivo
Pons [10] = assay: Drug uptake in anesthetized cynomolgus monkey brain pons after 135 mins postinjection; type: ADME, organism-based, Macaca fascicularis; details: in vivo, 2.25 h
Thalamus [11] = assay: Drug uptake in anesthetized cynomolgus monkey brain thalamus after 175 mins postinjection; type: ADME, organism-based, Macaca fascicularis; design: unit not given here; details: in vivo
[12] = Ratio of drug uptake in pons to cerebellum in anesthetized cynomolgus monkey after 175 mins postinjection; type: ADME, organism-based, Macaca fascicularis; details: in vivo
Pons [13] = assay: Drug uptake in anesthetized cynomolgus monkey brain pons after 55 mins postinjection; type: ADME, organism-based, Macaca fascicularis; details: in vivo
[14] = Drug uptake in anesthetized cynomolgus monkey brain cerebellum after 115 mins postinjection; type: ADME, organism-based, Macaca fascicularis; details: in vivo
[15] = Ratio of drug uptake in medulla to cerebellum in anesthetized cynomolgus monkey after 65 mins postinjection; type: ADME, organism-based, Macaca fascicularis; details: in vivo
Midbrain [16] = assay: Drug uptake in anesthetized cynomolgus monkey brain midbrain after 3.5 mins postinjection; type: ADME, organism-based, Macaca fascicularis; design: unit not given here; details: in vivo
[17] = Drug uptake in anesthetized cynomolgus monkey brain frontal lobe after 105 mins postinjection; type: ADME, organism-based, Macaca fascicularis; details: in vivo, 1.75 h
Medulla [18] = assay: Drug uptake in anesthetized cynomolgus monkey brain medulla after 235 mins postinjection; type: ADME, organism-based, Macaca fascicularis; details: in vivo
[19] = Ratio of drug uptake in medulla to cerebellum in anesthetized cynomolgus monkey after 9.5 mins postinjection; type: ADME, organism-based, Macaca fascicularis; details: in vivo
Putamen [20] = assay: Drug uptake in anesthetized cynomolgus monkey brain putamen after 225 mins postinjection; type: ADME, organism-based, Macaca fascicularis; details: in vivo, 3.75 h
Medulla [21] = assay: Drug uptake in anesthetized cynomolgus monkey brain medulla after 2.5 mins postinjection; type: ADME, organism-based, Macaca fascicularis; details: in vivo
Putamen [22] = assay: Drug uptake in anesthetized cynomolgus monkey brain putamen after 115 mins postinjection; type: ADME, organism-based, Macaca fascicularis; design: unit not given here; details: in vivo
Pons [23] = assay: Drug uptake in anesthetized cynomolgus monkey brain pons after 175 mins postinjection; type: ADME, organism-based, Macaca fascicularis; details: in vivo
Medulla [24] = assay: Drug uptake in anesthetized cynomolgus monkey brain medulla after 1.5 mins postinjection; type: ADME, organism-based, Macaca fascicularis; details: in vivo, 0.025 h
Caudate [25] = assay: Drug uptake in anesthetized cynomolgus monkey brain caudate after 4.5 mins postinjection; type: ADME, organism-based, Macaca fascicularis, Caudate nucleus; details: in vivo, 0.075 h
Pons [26] = assay: Drug uptake in anesthetized cynomolgus monkey brain pons after 18.5 mins postinjection; type: ADME, organism-based, Macaca fascicularis; details: in vivo
Midbrain [27] = assay: Drug uptake in anesthetized cynomolgus monkey brain midbrain after 6.5 mins postinjection; type: ADME, organism-based, Macaca fascicularis; design: unit not given here; details: in vivo
[28] = Ratio of drug uptake in occipital lobe to cerebellum in anesthetized cynomolgus monkey after 195 mins postinjection; type: ADME, organism-based, Macaca fascicularis; details: in vivo, 3.25 h
[29] = Ratio of drug uptake in medulla to cerebellum in anesthetized cynomolgus monkey after 1.5 mins postinjection; type: ADME, organism-based, Macaca fascicularis; details: in vivo, 0.025 h
Midbrain [30] = assay: Drug uptake in anesthetized cynomolgus monkey brain midbrain after 215 mins postinjection; type: ADME, organism-based, Macaca fascicularis; details: in vivo
[31] = Drug uptake in anesthetized cynomolgus monkey brain occipital lobe after 155 mins postinjection; type: ADME, organism-based, Macaca fascicularis; details: in vivo
Medulla [32] = assay: Drug uptake in anesthetized cynomolgus monkey brain medulla after 155 mins postinjection; type: ADME, organism-based, Macaca fascicularis; details: in vivo
Medulla [33] = assay: Drug uptake in anesthetized cynomolgus monkey brain medulla after 145 mins postinjection; type: ADME, organism-based, Macaca fascicularis; details: in vivo
Midbrain [34] = assay: Drug uptake in anesthetized cynomolgus monkey brain midbrain after 105 mins postinjection; type: ADME, organism-based, Macaca fascicularis; design: unit not given here; details: in vivo, 1.75 h
Medulla [35] = assay: Drug uptake in anesthetized cynomolgus monkey brain medulla after 4.5 mins postinjection; type: ADME, organism-based, Macaca fascicularis; details: in vivo, 0.075 h
Putamen [36] = assay: Drug uptake in anesthetized cynomolgus monkey brain putamen after 6.5 mins postinjection; type: ADME, organism-based, Macaca fascicularis; design: unit not given here; details: in vivo
[37] = Drug uptake in anesthetized cynomolgus monkey brain occipital lobe after 165 mins postinjection; type: ADME, organism-based, Macaca fascicularis; details: in vivo, 2.75 h
[38] = Ratio of drug uptake in frontal lobe to cerebellum in anesthetized cynomolgus monkey after 135 mins postinjection; type: ADME, organism-based, Macaca fascicularis; details: in vivo, 2.25 h
Caudate [39] = assay: Drug uptake in anesthetized cynomolgus monkey brain caudate after 1.5 mins postinjection; type: ADME, organism-based, Macaca fascicularis, Caudate nucleus; details: in vivo, 0.025 h
Thalamus [40] = assay: Drug uptake in anesthetized cynomolgus monkey brain thalamus after 55 mins postinjection; type: ADME, organism-based, Macaca fascicularis; design: unit not given here; details: in vivo
Putamen [41] = assay: Drug uptake in anesthetized cynomolgus monkey brain putamen after 185 mins postinjection; type: ADME, organism-based, Macaca fascicularis; details: in vivo
[42] = Ratio of drug uptake in midbrain to cerebellum in anesthetized cynomolgus monkey after 27.5 mins postinjection; type: ADME, organism-based, Macaca fascicularis; details: in vivo
Pons [43] = assay: Drug uptake in anesthetized cynomolgus monkey brain pons after 9.5 mins postinjection; type: ADME, organism-based, Macaca fascicularis; details: in vivo
[44] = Drug uptake in anesthetized cynomolgus monkey brain cerebellum after 22.5 mins postinjection; type: ADME, organism-based, Macaca fascicularis; details: in vivo, 0.375 h
Midbrain [45] = assay: Drug uptake in anesthetized cynomolgus monkey brain midbrain after 22.5 mins postinjection; type: ADME, organism-based, Macaca fascicularis; design: unit not given here; details: in vivo, 0.375 h
Medulla [46] = assay: Drug uptake in anesthetized cynomolgus monkey brain medulla after 195 mins postinjection; type: ADME, organism-based, Macaca fascicularis; details: in vivo, 3.25 h
[47] = Drug uptake in anesthetized cynomolgus monkey brain frontal lobe after 215 mins postinjection; type: ADME, organism-based, Macaca fascicularis; details: in vivo
[48] = Drug uptake in anesthetized cynomolgus monkey brain frontal lobe after 3.5 mins postinjection; type: ADME, organism-based, Macaca fascicularis; details: in vivo
Caudate [49] = assay: Drug uptake in anesthetized cynomolgus monkey brain caudate after 55 mins postinjection; type: ADME, organism-based, Macaca fascicularis, Caudate nucleus; details: in vivo
[50] = Drug uptake in anesthetized cynomolgus monkey brain occipital lobe after 0.5 mins postinjection; type: ADME, organism-based, Macaca fascicularis; details: in vivo
Caudate [51] = assay: Drug uptake in anesthetized cynomolgus monkey brain caudate after 235 mins postinjection; type: ADME, organism-based, Macaca fascicularis, Caudate nucleus; details: in vivo
Midbrain [52] = assay: Drug uptake in anesthetized cynomolgus monkey brain midbrain after 55 mins postinjection; type: ADME, organism-based, Macaca fascicularis; design: unit not given here; details: in vivo
[53] = Drug uptake in anesthetized cynomolgus monkey brain occipital lobe after 2.5 mins postinjection; type: ADME, organism-based, Macaca fascicularis; details: in vivo
Medulla [54] = assay: Drug uptake in anesthetized cynomolgus monkey brain medulla after 6.5 mins postinjection; type: ADME, organism-based, Macaca fascicularis; details: in vivo
[55] = Drug uptake in anesthetized cynomolgus monkey brain occipital lobe after 145 mins postinjection; type: ADME, organism-based, Macaca fascicularis; details: in vivo
Medulla [56] = assay: Drug uptake in anesthetized cynomolgus monkey brain medulla after 215 mins postinjection; type: ADME, organism-based, Macaca fascicularis; details: in vivo
[57] = Ratio of drug uptake in putamen to cerebellum in anesthetized cynomolgus monkey after 165 mins postinjection; type: ADME, organism-based, Macaca fascicularis; details: in vivo, 2.75 h
[58] = Drug uptake in anesthetized cynomolgus monkey brain cerebellum after 3.5 mins postinjection; type: ADME, organism-based, Macaca fascicularis; details: in vivo
[59] = Ratio of drug uptake in medulla to cerebellum in anesthetized cynomolgus monkey after 35 mins postinjection; type: ADME, organism-based, Macaca fascicularis; details: in vivo
[60] = Ratio of drug uptake in medulla to cerebellum in anesthetized cynomolgus monkey after 12.5 mins postinjection; type: ADME, organism-based, Macaca fascicularis; details: in vivo
Caudate [61] = assay: Drug uptake in anesthetized cynomolgus monkey brain caudate after 85 mins postinjection; type: ADME, organism-based, Macaca fascicularis, Caudate nucleus; details: in vivo
[62] = Ratio of drug uptake in caudate to cerebellum in anesthetized cynomolgus monkey after 12.5 mins postinjection; type: ADME, organism-based, Macaca fascicularis; details: in vivo
Putamen [63] = assay: Drug uptake in anesthetized cynomolgus monkey brain putamen after 18.5 mins postinjection; type: ADME, organism-based, Macaca fascicularis; design: unit not given here; details: in vivo
[64] = Ratio of drug uptake in occipital lobe to cerebellum in anesthetized cynomolgus monkey after 205 mins postinjection; type: ADME, organism-based, Macaca fascicularis; details: in vivo
Thalamus [65] = assay: Drug uptake in anesthetized cynomolgus monkey brain thalamus after 2.5 mins postinjection; type: ADME, organism-based, Macaca fascicularis; design: unit not given here; details: in vivo
[66] = Drug uptake in anesthetized cynomolgus monkey brain occipital lobe after 55 mins postinjection; type: ADME, organism-based, Macaca fascicularis; details: in vivo
Caudate [67] = assay: Drug uptake in anesthetized cynomolgus monkey brain caudate after 45 mins postinjection; type: ADME, organism-based, Macaca fascicularis, Caudate nucleus; details: in vivo, 0.75 h
Midbrain [68] = assay: Drug uptake in anesthetized cynomolgus monkey brain midbrain after 9.5 mins postinjection; type: ADME, organism-based, Macaca fascicularis; design: unit not given here; details: in vivo

`O=C(OCC[18F])C1C2CCC(CC1c1cccc(/C=C\Br)c1)N2` (stereo not drawn) gave a Drug uptake (Midbrain [1]) of 4.68, a Drug uptake (Putamen [2]) of 3.92 and a Drug uptake (Midbrain [3]) of 4.16. It also gave a Ratio [4] of 0.9, a Drug uptake [5] of 3.59 and a Drug uptake [6] of 2.78. It also gave a Ratio [7] of 1.1, a Drug uptake [8] of 2.75 and a Drug uptake (Medulla [9]) of 4.55. For the same molecule, the Drug uptake (Pons [10]) was 4.26, the Drug uptake (Thalamus [11]) was 3.36 and the Ratio [12] was 1.8. The Drug uptake (Pons [13]) was 4.36, the Drug uptake [14] was 2.78 and the Ratio [15] was 1.4. For the same molecule, the Drug uptake (Midbrain [16]) was 0.95, the Drug uptake [17] was 2.69 and the Drug uptake (Medulla [18]) was 2.72. It also gave a Ratio [19] of 1.2, a Drug uptake (Putamen [20]) of 3 and a Drug uptake (Medulla [21]) of 0.61. The Drug uptake (Putamen [22]) was 4.68, the Drug uptake (Pons [23]) was 3.72 and the Drug uptake (Medulla [24]) was 0.08. The Drug uptake (Caudate [25]) was 1.12, the Drug uptake (Pons [26]) was 4.13 and the Drug uptake (Midbrain [27]) was 2.99. The Ratio [28] was 1.1, the Ratio [29] was 1.3 and the Drug uptake (Midbrain [30]) was 3.76. For the same molecule, the Drug uptake [31] was 2.67, the Drug uptake (Medulla [32]) was 3.83 and the Drug uptake (Medulla [33]) was 3.92. For the same molecule, the Drug uptake (Midbrain [34]) was 4.87, the Drug uptake (Medulla [35]) was 2.07 and the Drug uptake (Putamen [36]) was 3.01. For the same molecule, the Drug uptake [37] was 2.5, the Ratio [38] was 1.1 and the Drug uptake (Caudate [39]) was 0.04. For the same molecule, the Drug uptake (Thalamus [40]) was 4.38, the Drug uptake (Putamen [41]) was 3.68 and the Ratio [42] was 1.2. The Drug uptake (Pons [43]) was 3.15, the Drug uptake [44] was 3.81 and the Drug uptake (Midbrain [45]) was 4.28. The Drug uptake (Medulla [46]) was 3.34, the Drug uptake [47] was 1.97 and the Drug uptake [48] was 0.62. The Drug uptake (Caudate [49]) was 4.1, the Drug uptake [50] was 0.01 and the Drug uptake (Caudate [51]) was 2.53. The Drug uptake (Midbrain [52]) was 4.98, the Drug uptake [53] was 0.36 and the Drug uptake (Medulla [54]) was 3.64. The Drug uptake [55] was 2.74, the Drug uptake (Medulla [56]) was 3.04 and the Ratio [57] was 1.8. It also gave a Drug uptake [58] of 1.14, a Ratio [59] of 1.3 and a Ratio [60] of 1.2. The Drug uptake (Caudate [61]) was 4.06, the Ratio [62] was 0.8 and the Drug uptake (Putamen [63]) was 4.37. For the same molecule, the Ratio [64] was 1.3, the Drug uptake (Thalamus [65]) was 0.29 and the Drug uptake [66] was 3.49. It also gave a Drug uptake (Caudate [67]) of 3.83 and a Drug uptake (Midbrain [68]) of 3.41.
